Assay results as given in PubChem BioAssay AID1745844 (Carcinogenic Potency Database (CPDB), 2022).
Where “and” joins values, the source holds several entries; their conditions need not be identical. Equal entries are not always repeated. Calls of active or inactive are those of the source. The rule behind the calls is not given here.

System: rodent lifetime carcinogenesis bioassay, tumor incidence TD50
Assay: carcinogenic potency in animals, long-term in vivo studies, CPDB compilation (AID 1745844)

## c1cc(OCC2CO2)cc(OCC2CO2)c1 (stereo unspecified)
mouse, strain B6C3F1, females, by gavage, site: any site (literature study), lesion: several types, types named in the paper, dosed 103 weeks, study length 105 weeks
  TD50: 32.3 mg/kg/day
mouse, strain B6C3F1, females, by gavage, site: liver, lesion: hepatocellular adenoma + hepatocellular carcinoma + neoplastic nodule, dosed 103 weeks, study length 105 weeks
  TD50: 169 mg/kg/day
mouse, strain B6C3F1, females, by gavage, site: liver, lesion: hepatocellular carcinoma, dosed 103 weeks, study length 105 weeks
  TD50: 221 mg/kg/day
mouse, strain B6C3F1, females, by gavage, site: lung, lesion: alveolar/bronchiolar adenoma + alveolar/bronchiolar carcinoma, dosed 103 weeks, study length 105 weeks
  TD50: 4790 mg/kg/day
mouse, strain B6C3F1, females, by gavage, site: stomach, lesion: papillomatosis + squamous-cell carcinoma + squamous-cell papilloma, dosed 103 weeks, study length 105 weeks
  TD50: 17.9 mg/kg/day
mouse, strain B6C3F1, females, by gavage, site: stomach, lesion: papillomatosis + squamous-cell papilloma, dosed 103 weeks, study length 105 weeks
  TD50: 48.2 mg/kg/day
mouse, strain B6C3F1, females, by gavage, site: stomach, lesion: squamous-cell carcinoma, dosed 103 weeks, study length 105 weeks
  TD50: 36.3 mg/kg/day
mouse, strain B6C3F1, males, by gavage, site: any site (literature study), lesion: several types, types named in the paper, dosed 103 weeks, study length 104 weeks
  TD50: 36.6 mg/kg/day
mouse, strain B6C3F1, males, by gavage, site: liver, lesion: hepatocellular adenoma + hepatocellular carcinoma + neoplastic nodule, dosed 103 weeks, study length 104 weeks
  TD50: 84.7 mg/kg/day
mouse, strain B6C3F1, males, by gavage, site: lung, lesion: alveolar/bronchiolar adenoma + alveolar/bronchiolar carcinoma, dosed 103 weeks, study length 104 weeks
  TD50: 1350 mg/kg/day
mouse, strain B6C3F1, males, by gavage, site: stomach, lesion: papillomatosis + squamous-cell carcinoma + squamous-cell papilloma, dosed 103 weeks, study length 104 weeks
  TD50: 37.8 mg/kg/day
mouse, strain B6C3F1, males, by gavage, site: stomach, lesion: papillomatosis + squamous-cell papilloma, dosed 103 weeks, study length 104 weeks
  TD50: 145 mg/kg/day
mouse, strain B6C3F1, males, by gavage, site: stomach, lesion: squamous-cell carcinoma, dosed 103 weeks, study length 104 weeks
  TD50: 55.5 mg/kg/day
rat, strain Fischer 344, females, by gavage, site: any site (literature study), lesion: several types, types named in the paper, dosed 103 weeks, study length 104 weeks
  TD50: 8.53 mg/kg/day and 16 mg/kg/day
rat, strain Fischer 344, females, by gavage, site: forestomach, lesion: squamous-cell carcinoma + squamous-cell papilloma, dosed 103 weeks, study length 104 weeks
  TD50: 3.53 mg/kg/day
rat, strain Fischer 344, females, by gavage, site: forestomach, lesion: squamous-cell carcinoma, dosed 103 weeks, study length 104 weeks
  TD50: 5.93 mg/kg/day
rat, strain Fischer 344, females, by gavage, site: forestomach, lesion: squamous-cell papilloma, dosed 103 weeks, study length 104 weeks
  TD50: 8.95 mg/kg/day
rat, strain Fischer 344, females, by gavage, site: liver, lesion: hepatocellular adenoma + hepatocellular carcinoma + neoplastic nodule, dosed 103 weeks, study length 104 weeks
  TD50: 174 mg/kg/day
rat, strain Fischer 344, females, by gavage, site: stomach, lesion: squamous-cell carcinoma + squamous-cell papilloma, dosed 103 weeks, study length 104 weeks
  TD50: 4.47 mg/kg/day
rat, strain Fischer 344, females, by gavage, site: stomach, lesion: squamous-cell carcinoma, dosed 103 weeks, study length 104 weeks
  TD50: 5.1 mg/kg/day
rat, strain Fischer 344, females, by gavage, site: stomach, lesion: squamous-cell papilloma, dosed 103 weeks, study length 104 weeks
  TD50: 45.5 mg/kg/day
rat, strain Fischer 344, males, by gavage, site: any site (literature study), lesion: several types, types named in the paper, dosed 98 weeks, study length 104 weeks
  TD50: 2.43 mg/kg/day
rat, strain Fischer 344, males, by gavage, site: any site (literature study), lesion: several types, types named in the paper, dosed 103 weeks, study length 104 weeks
  TD50: 4.61 mg/kg/day
rat, strain Fischer 344, males, by gavage, site: forestomach, lesion: squamous-cell carcinoma + squamous-cell papilloma, dosed 103 weeks, study length 104 weeks
  TD50: 2.33 mg/kg/day
rat, strain Fischer 344, males, by gavage, site: forestomach, lesion: squamous-cell carcinoma, dosed 103 weeks, study length 104 weeks
  TD50: 2.73 mg/kg/day
rat, strain Fischer 344, males, by gavage, site: forestomach, lesion: squamous-cell papilloma, dosed 103 weeks, study length 104 weeks
  TD50: 8.16 mg/kg/day
rat, strain Fischer 344, males, by gavage, site: liver, lesion: hepatocellular adenoma + hepatocellular carcinoma + neoplastic nodule, dosed 98 weeks, study length 104 weeks
  TD50: 114 mg/kg/day
rat, strain Fischer 344, males, by gavage, site: liver, lesion: hepatocellular adenoma + hepatocellular carcinoma + neoplastic nodule, dosed 103 weeks, study length 104 weeks
  TD50: 640 mg/kg/day
rat, strain Fischer 344, males, by gavage, site: pituitary gland, lesion: adenoma, NOS, dosed 98 weeks, study length 104 weeks
  TD50: 12.2 mg/kg/day
rat, strain Fischer 344, males, by gavage, site: stomach, lesion: squamous-cell carcinoma + squamous-cell papilloma, dosed 98 weeks, study length 104 weeks
  TD50: 2.89 mg/kg/day
rat, strain Fischer 344, males, by gavage, site: stomach, lesion: squamous-cell carcinoma, dosed 98 weeks, study length 104 weeks
  TD50: 3.06 mg/kg/day
rat, strain Fischer 344, males, by gavage, site: stomach, lesion: squamous-cell papilloma, dosed 98 weeks, study length 104 weeks
  TD50: 24.7 mg/kg/day
rat, strain Fischer 344, males, by gavage, site: testis, lesion: interstitial-cell tumor, dosed 98 weeks, study length 104 weeks
  TD50: 2.35 mg/kg/day

## Cn1cnc([N+](=O)[O-])c1Sc1ncnc2nc[nH]c12
monkey, strain Rhesus [Macaca mulatta], both sexes, in feed, site: any site (literature study), lesion: benign tumor, dosed 774 weeks, study length 851 weeks
  TD50: 4.89 mg/kg/day
monkey, strain Rhesus [Macaca mulatta], both sexes, in feed, site: any site (literature study), lesion: several types, types named in the paper, dosed 774 weeks, study length 851 weeks
  TD50: 3.68 mg/kg/day
monkey, strain Rhesus [Macaca mulatta], both sexes, in feed, site: leptomeninges, lesion: lymphocytic lymphoma, dosed 774 weeks, study length 851 weeks
  TD50: 6.79 mg/kg/day
monkey, strain Rhesus [Macaca mulatta], both sexes, in feed, site: salivary gland, lesion: adenoma, dosed 774 weeks, study length 851 weeks
  TD50: 2.18 mg/kg/day
monkey, strain Rhesus [Macaca mulatta], both sexes, in feed, site: uterus, lesion: leiomyoma, dosed 774 weeks, study length 851 weeks
  TD50: 2.74 mg/kg/day
mouse, strain B6C3F1, females, in feed, site: all sites, lesion: systemic and localized lymphoma, dosed 94 weeks, study length 94 weeks
  TD50: 7.59 mg/kg/day
mouse, strain B6C3F1, females, in feed, site: all sites, lesion: systemic and localized lymphoma, dosed 100 weeks, study length 100 weeks
  TD50: 43.8 mg/kg/day
mouse, strain B6C3F1, females, in feed, site: liver, lesion: hepatocellular adenoma, dosed 100 weeks, study length 100 weeks
  TD50: 67.5 mg/kg/day
mouse, strain B6C3F1, females, in feed, site: lung, lesion: one or several types, types not named, dosed 94 weeks, study length 94 weeks
  TD50: 4.89 mg/kg/day
mouse, strain B6C3F1, females, in feed, site: uterus, lesion: hemangioendothelioma, dosed 100 weeks, study length 100 weeks
  TD50: 8.92 mg/kg/day
mouse, strain B6C3F1, males, in feed, site: all sites, lesion: systemic and localized lymphoma, dosed 100 weeks, study length 100 weeks
  TD50: 9.66 mg/kg/day
mouse, strain B6C3F1, males, in feed, site: liver, lesion: hepatocellular carcinoma, dosed 100 weeks, study length 100 weeks
  TD50: 55.9 mg/kg/day
mouse, strain B6C3F1, males, in feed, site: lung, lesion: carcinoma, dosed 100 weeks, study length 100 weeks
  TD50: 55.9 mg/kg/day
rat, strain Fischer 344, females, in feed, site: ear duct, lesion: squamous-cell carcinoma, dosed 52 weeks, study length 52 weeks
  TD50: 10.1 mg/kg/day
rat, strain Fischer 344, females, in feed, site: liver, lesion: one or several types, types not named, dosed 52 weeks, study length 52 weeks
  carcinogen call: negative (inactive)

## [O-][Cl+]O
mouse, strain B6C3F1, females, in drinking water, site: liver, lesion: several types, types named in the paper, dosed 85 weeks, study length 85 weeks
  TD50: 3060 mg/kg/day
mouse, strain B6C3F1, males, in drinking water, site: any site (literature study), lesion: several types, types named in the paper, dosed 85 weeks, study length 85 weeks
  TD50: 169 mg/kg/day
mouse, strain B6C3F1, males, in drinking water, site: liver, lesion: hyperplastic nodule, dosed 85 weeks, study length 85 weeks
  TD50: 146 mg/kg/day
mouse, strain B6C3F1, males, in drinking water, site: liver, lesion: several types, types named in the paper, dosed 85 weeks, study length 85 weeks
  TD50: 110 mg/kg/day
mouse, strain B6C3F1, males, in drinking water, site: lung, lesion: adenoma, dosed 85 weeks, study length 85 weeks
  TD50: 346 mg/kg/day
mouse, strain B6C3F1, males, in drinking water, site: lung, lesion: several types, types named in the paper, dosed 85 weeks, study length 85 weeks
  TD50: 237 mg/kg/day
rat, strain Fischer 344, females, in drinking water, site: any site (literature study), lesion: several types, types named in the paper, dosed 85 weeks, study length 85 weeks
  carcinogen call: negative (inactive)
rat, strain Fischer 344, males, in drinking water, site: any site (literature study), lesion: several types, types named in the paper, dosed 85 weeks, study length 85 weeks
  carcinogen call: negative (inactive)

## CC1=CC(=C(c2ccc(N)cc2)c2ccc(N)cc2)C=CC1=N
hamster, strain Syrian Golden, females, by gavage, site: any site (literature study), lesion: several types, types named in the paper, dosed 68 weeks, study length 68 weeks
  carcinogen call: negative (inactive)
hamster, strain Syrian Golden, males, by gavage, site: any site (literature study), lesion: several types, types named in the paper, dosed 84 weeks, study length 84 weeks
  carcinogen call: negative (inactive)
hamster, strain Syrian Golden, males, by gavage, site: lung, lesion: bronchiolar adenoma, dosed 84 weeks, study length 84 weeks
  TD50: 2020 mg/kg/day (inactive)
rat, strain Sprague-Dawley, females, by gavage, site: any site (literature study), lesion: several types, types named in the paper, dosed 107 weeks, study length 107 weeks
  carcinogen call: negative (inactive)
rat, strain Sprague-Dawley, males, by gavage, site: any site (literature study), lesion: several types, types named in the paper, dosed 111 weeks, study length 111 weeks
  carcinogen call: negative (inactive)

## COC(=O)C1=C(C)NC(C)=C(C(=O)OCC(C)(C)CN(C)Cc2ccccc2)C1c1cc([N+](=O)[O-])ccc1F (stereo unspecified)
rat, strain Fischer 344, females, in feed, site: liver, lesion: one or several types, types not named, dosed 104 weeks, study length 104 weeks
  carcinogen call: negative (inactive)
rat, strain Fischer 344, males, in feed, site: all sites, lesion: mononuclear-cell leukemia, dosed 104 weeks, study length 104 weeks
  carcinogen call: negative (inactive)
rat, strain Fischer 344, males, in feed, site: liver, lesion: hepatocellular adenoma, dosed 104 weeks, study length 104 weeks
  carcinogen call: negative (inactive)

## FC(F)OC(Cl)C(F)(F)F (stereo unspecified)
mouse, strain Swiss Webster, females, inhaled, site: liver, lesion: basophil adenoma, dosed 78 weeks, study length 81 weeks
  carcinogen call: negative (inactive)
mouse, strain Swiss Webster, females, inhaled, site: lung, lesion: alveolar-cell adenoma, dosed 78 weeks, study length 81 weeks
  TD50: 30000 mg/kg/day (inactive)
mouse, strain Swiss Webster, males, inhaled, site: liver, lesion: basophil adenoma, dosed 78 weeks, study length 81 weeks
  carcinogen call: negative (inactive)
mouse, strain Swiss Webster, males, inhaled, site: lung, lesion: alveolar-cell adenoma, dosed 78 weeks, study length 81 weeks
  carcinogen call: negative (inactive)

## CC1CN(N=O)CC(C)N1N=O (stereo unspecified)
hamster, strain Syrian Golden, males, by gavage, site: any site (literature study), lesion: several types, types named in the paper, dosed 35 weeks, study length 76 weeks
  TD50: 0.932 mg/kg/day
hamster, strain Syrian Golden, males, by gavage, site: forestomach, lesion: papilloma, dosed 35 weeks, study length 76 weeks
  TD50: 3.1 mg/kg/day
hamster, strain Syrian Golden, males, by gavage, site: liver, lesion: angiosarcoma, dosed 35 weeks, study length 76 weeks
  TD50: 8.3 mg/kg/day
hamster, strain Syrian Golden, males, by gavage, site: lung, lesion: adenoma, dosed 35 weeks, study length 76 weeks
  TD50: 6.04 mg/kg/day

## CC(=O)Nc1ccc(C(=O)CCl)cc1
mouse, strain B6C3F1, females, in feed, site: any site (literature study), lesion: several types, types named in the paper, dosed 90 weeks, study length 105 weeks
  TD50: 3500 mg/kg/day
mouse, strain B6C3F1, females, in feed, site: liver, lesion: hepatocellular adenoma + hepatocellular carcinoma + neoplastic nodule, dosed 90 weeks, study length 105 weeks
  TD50: 4700 mg/kg/day
mouse, strain B6C3F1, females, in feed, site: liver, lesion: hepatocellular adenoma, dosed 90 weeks, study length 105 weeks
  TD50: 4700 mg/kg/day
mouse, strain B6C3F1, females, in feed, site: lung, lesion: alveolar/bronchiolar adenoma + alveolar/bronchiolar carcinoma, dosed 90 weeks, study length 105 weeks
  TD50: 3020 mg/kg/day
mouse, strain B6C3F1, males, in feed, site: any site (literature study), lesion: several types, types named in the paper, dosed 90 weeks, study length 105 weeks
  carcinogen call: negative (inactive)
rat, strain Fischer 344, females, in feed, site: any site (literature study), lesion: several types, types named in the paper, dosed 87 weeks, study length 103 weeks
  carcinogen call: negative (inactive)
rat, strain Fischer 344, males, in feed, site: any site (literature study), lesion: several types, types named in the paper, dosed 87 weeks, study length 103 weeks
  TD50: 325 mg/kg/day (inactive)
rat, strain Fischer 344, males, in feed, site: liver, lesion: hepatocellular adenoma + hepatocellular carcinoma + neoplastic nodule, dosed 87 weeks, study length 103 weeks
  TD50: 2470 mg/kg/day

## C=CC(O)c1ccc(OC)cc1 (stereo unspecified)
mouse, strain Charles River CD1, females, in feed, site: liver, lesion: hepatoma, dosed 51 weeks, study length 86 weeks
  TD50: 57.8 mg/kg/day
